Test system: apoptosis-related proteins
Assay: Human apoptosis antibody array
Format: cell-based
Settings: 12 μM, 24 h, vs untreated cells
Experimental: The Human Apoptosis Antibody Array Kit (ab134001, Abcam) was used to detect the apoptosis pathway. Briefly, cells were lysed and each membrane was incubated at 4 °C overnight with 500 μg of total extracted protein. Membranes were then washed and incubated overnight at 4 °C with Biotin-conjugated Anti-Cytokines. After an incubation of the membranes with HRP-streptavidin for 2 h at room temperature, chemiluminescence was detected using ChemiDoc XRS+ (Bio-Rad, Hercules, CA, USA). The images were analysed with Image Lab 5.2.1.
The representative images were randomly selected from at least 3 independent experiments.
To further explore the activity of Compound 1 on gastrointestinal cancer cells, the effectiveness on cell apoptosis was investigated. Following incubation with Compound 1, cells underwent morphological changes of cell shrinkage and cytoplasmic vacuolization (FIG. 1C). An early event in apoptosis is represented by the loss of plasma membrane asymmetry, resulting in the translocation of phosphatidylserine (PS) from the inner to the outer plasma membrane leaflet. Exposed PS on the cell surface can be used to measure apoptosis by the binding with Annexin V. KKU-M213, HLE and HT-29 cells were incubated with increasing concentrations of Compound 1 (3, 9 and 12 μM). After 4 hours, cells were stained with a FITC-Annexin V antibody and fixed. […]

Question: How did the “differential expression of apoptosis-related proteins” value turn out when C[C@H](NC(=O)CCc1nc2cccnc2n1Cc1ccc(OC(F)(F)F)cc1)c1ccc(Cl)cc1 [Compound 1, N-[(S)-1-(4-chloro-phenyl)-ethyl]-3-[3-(4-trifluoromethoxy-benzyl)-3H-imidazo[4,5-b]pyridin-2-yl]-propionamide] was run?
Answer: upregulating pro-apoptosic proteins including Bim, Caspase-3 and -8, HTRA, DR6, Fas, p53 and SMAC

— US20260364056A1, “METHODS OF TREATMENT OF NON-PANCREATIC GASTROINTESTINAL CANCERS” (IONCTURA bv, priority 2023, published 2026)
